Patent publication US6187296A, “Lysine decarboxylase inhibitors for the prevention and treatment of periodontal disease” (priority 2000, dated 2001)

Key:
[1] = biological target: T1, lysine decarboxylase (Selenomonas ruminantium, UniProt O50657); details: cited from earlier work
T1 construct: host or cells: Selenomonas ruminantium

[2] = tested on: lysine decarboxylase; details: Mycoplasma dispar; cited from earlier work
[3] = tested on: HL60 cells; format: cell-based; details: FIG. 3; control 0.22 mM lysine; 0.72 mM lysine and/or 0.42 mM EACA
Method: Graphs show the percent growth inhibition after 96 h (2A) and the percent lysine remaining (2B) after 40 h incubation (obtained as described in legend to FIG. 1).

[4] = biological target: lysine decarboxylase (Eikenella corrodens, UniProt Q9Z4R7); assay: Cadaverine production by E. corrodens extract as a function of initial lysine concentration; format: biochemical; details: 0.42 mM EACA
Method: FIGS. 4A and 4B are graphs showing cadaverine production as a function of initial lysine concentration in the presence and absence of […] ε-amino-n-caproic acid (EACA). […] Initial rate of cadaverine produced (from 0.3 μg E. corrodens extract protein/ml) graphed against the initial lysine concentration. A. Cadaverine produced after 20 min: Enzyme only: .circle-solid.-.circle-solid.; with 0.42 ImM EACA .smallcircle. . . . .smallcircle.. B. Enlarged inset, cadaverine produced after 16 h (limited substrate): Enzyme only .circle-solid.-.circle-solid.; with 0.42 mM EACA .smallcircle. . . . .smallcircle..
The results of FIG. 1 were obtained when 0.1 ml of E. corrodens extract (10 μg protein/ml), or plaque extract (100 μg protein/ml) was added to 0.5×10^5 HL60 cells or 2×10^5 HeLa cells in 0.5 ml growth medium in 48-well plates (Costar, Cambridge, Mass.). The cells were incubated for 96 h at 37° C. in 5% CO2 in air, examined visually and counted on a Coulter Counter (Coulter Electronics Hialeah, Fla.). […] The samples were incubated at 43° C. for 5.0 min, vortexed with 2.0 ml toluene for 20 sec, centrifuged at 2,000 rpm for 5 min and the absorbance of the toluene layer read at 340 nm. From a standard curve, the cadaverine produced was measured and subtracted from the amount of free lysine initially in the medium plus extract after 16 h or 40 h. […]

[5] = biological target: T2, lysine decarboxylase (Escherichia coli, UniProt P0A9H3); details: cited from earlier work
T2 construct: host or cells: Escherichia coli

[6] = tested on: lysine decarboxylase; assay: Lysine decarboxylase activity in Mycoplasma dispar; format: biochemical; details: half of the DL-form inhibiting values
[7] = biological target: T1, lysine decarboxylase; assay: Lysine decarboxylase activity in Selenomonas ruminantium; format: biochemical; details: half of the DL-form inhibiting values, read-out: Equivalent L inhibitory values

T1 sequence (O50657 whole entry): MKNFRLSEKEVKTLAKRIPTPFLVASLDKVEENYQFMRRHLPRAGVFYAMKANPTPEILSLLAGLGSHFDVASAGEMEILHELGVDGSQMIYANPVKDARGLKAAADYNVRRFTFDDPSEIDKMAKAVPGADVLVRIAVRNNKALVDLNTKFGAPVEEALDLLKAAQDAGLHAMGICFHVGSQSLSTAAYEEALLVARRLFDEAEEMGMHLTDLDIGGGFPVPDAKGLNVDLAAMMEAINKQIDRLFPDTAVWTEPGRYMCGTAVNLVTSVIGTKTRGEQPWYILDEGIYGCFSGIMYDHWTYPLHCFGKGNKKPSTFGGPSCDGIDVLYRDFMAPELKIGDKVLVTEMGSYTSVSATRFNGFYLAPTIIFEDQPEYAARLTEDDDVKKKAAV
Sequence of lysine decarboxylase (Eikenella corrodens, UniProt Q9Z4R7) (Q9Z4R7 entry or part of it): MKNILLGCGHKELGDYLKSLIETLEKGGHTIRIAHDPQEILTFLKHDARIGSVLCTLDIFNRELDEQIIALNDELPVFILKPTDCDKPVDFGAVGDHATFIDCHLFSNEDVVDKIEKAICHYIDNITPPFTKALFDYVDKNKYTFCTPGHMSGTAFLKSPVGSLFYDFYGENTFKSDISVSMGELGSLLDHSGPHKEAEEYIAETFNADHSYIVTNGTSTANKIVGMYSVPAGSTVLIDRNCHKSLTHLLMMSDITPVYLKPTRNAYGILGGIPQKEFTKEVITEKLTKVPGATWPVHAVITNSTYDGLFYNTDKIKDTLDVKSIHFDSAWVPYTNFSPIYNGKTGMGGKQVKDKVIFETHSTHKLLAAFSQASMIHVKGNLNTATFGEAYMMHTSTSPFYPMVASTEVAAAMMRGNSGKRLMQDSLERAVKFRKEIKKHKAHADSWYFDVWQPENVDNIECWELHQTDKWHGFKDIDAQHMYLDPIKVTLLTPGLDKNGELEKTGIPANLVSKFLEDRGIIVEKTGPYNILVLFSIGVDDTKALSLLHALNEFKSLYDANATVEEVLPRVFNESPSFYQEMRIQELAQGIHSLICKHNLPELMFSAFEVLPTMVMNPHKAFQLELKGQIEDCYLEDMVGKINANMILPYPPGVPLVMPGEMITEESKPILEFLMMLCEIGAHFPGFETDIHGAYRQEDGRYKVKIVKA
T2 sequence (P0A9H3 whole entry): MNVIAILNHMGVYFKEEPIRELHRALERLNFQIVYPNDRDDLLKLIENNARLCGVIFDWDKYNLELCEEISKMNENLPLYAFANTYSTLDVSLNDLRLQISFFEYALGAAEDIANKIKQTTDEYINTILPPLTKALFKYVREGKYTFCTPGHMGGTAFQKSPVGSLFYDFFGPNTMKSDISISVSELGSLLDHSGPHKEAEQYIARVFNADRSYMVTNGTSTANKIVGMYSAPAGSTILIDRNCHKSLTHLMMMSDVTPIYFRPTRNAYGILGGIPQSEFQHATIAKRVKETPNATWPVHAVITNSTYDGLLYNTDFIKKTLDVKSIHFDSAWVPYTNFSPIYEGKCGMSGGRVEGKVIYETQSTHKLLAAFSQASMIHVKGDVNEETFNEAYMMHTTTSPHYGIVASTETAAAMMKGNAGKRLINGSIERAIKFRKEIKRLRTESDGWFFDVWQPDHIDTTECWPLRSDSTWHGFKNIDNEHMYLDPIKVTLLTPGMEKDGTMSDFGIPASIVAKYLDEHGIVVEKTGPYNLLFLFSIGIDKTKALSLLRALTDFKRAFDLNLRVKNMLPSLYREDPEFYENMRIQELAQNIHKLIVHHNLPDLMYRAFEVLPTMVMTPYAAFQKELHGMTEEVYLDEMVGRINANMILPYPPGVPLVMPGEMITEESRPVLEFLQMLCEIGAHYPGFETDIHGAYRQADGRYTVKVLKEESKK

Row | SMILES | Effect on lysine decarboxylase activity [1] | Effect on lysine decarboxylase activity [2] | Effect on growth inhibiting activity of E. corrodens extract [3] | further results
1 | NCCCC(N)(C(=O)O)C(F)F (racemic) [DFMO] | no effect | no effect | – | –
2 | N=C(N)NCCCC(N)(C(=O)O)C(F)F (racemic) [DFMR] | no effect | no effect | – | –
3 | NCCCCCC(=O)O [EACA, ε-amino-n-caproic acid] | – | – | increased the growth inhibition | Effect on the E. corrodens enzyme at high lysine concentrations ([4]; high lysine concentrations): inhibits the enzyme; Effect on the E. corrodens enzyme at low lysine concentrations ([4]; lysine 0.22-0.72 mM as in growth media): activates the enzyme; Effect on lysine decarboxylase from E. coli [5]: inhibits
4 | NCCCC[C@](N)(C(=O)O)C(F)F [L-DFML] | – | – | – | Equivalent L inhibitory values [6]: 0.05 to 0.50 mM; IC100 [7]: 50 to 500 µM
5 | NCCCC[C@H](N)C(=O)O [lysine] | – | – | decreased the growth inhibiting activity | –
